The values that follow come from a melting point compilation (Tetko et al.).

The compound `OC1CC(O)C(O)CO1` (stereo not given) gave a melting point of 69 to 72 °C.

Compound `O=C(N[C@@H](C(=O)O)c1ccccc1)OCC(Cl)(Cl)Cl` registered a melting point of 141 to 142 °C.

In turn, `O=C(Oc1c(F)c(F)c(F)c(F)c1F)c1sccc1C1OCCO1` registered a melting point of 55.5 to 59.5 °C.

For `CC(=O)CC(c1ccc([N+](=O)[O-])cc1)c1c(O)oc2ccccc2c1=O` (stereo not given), the melting point was found to be 197 °C.

`CCC(=O)N(C)C` displayed a melting point of -45 °C.

The compound `CCOc1ccc(-c2nnc3n2NC(c2ccc(O)c(OC)c2)S3)cc1` (stereo not given) displayed a melting point of 133 °C.

As for `FC(F)(F)c1cccc(C(F)(F)F)n1`, the melting point worked out at 57 °C.

For the compound `CC(C)(C)c1cc(C(C)(C)C)c2oc(C(=O)O)cc(=O)c2c1`, the melting point lay within 229 to 236 °C.

The compound `O=C(O)c1ncccc1O` showed a melting point of 208 to 212 °C.

`CC(=O)N1CCCCC1` came in with a melting point of -13.4 °C.

In turn, `Cc1oc(-c2ccccc2)nc1CO` returned a melting point of 117 to 118 °C.

With `CCC(=O)OC1CCC2C3CCC4CC(=O)C(C)CC4(C)C3CCC12C` (stereo not given), the melting point was 128 °C.

The compound `O=[N+]([O-])c1ccc(Cl)nc1` showed a melting point of 107 °C.

Compound `CCCCCCCCCC1CCCC1` yielded a melting point of -29 °C.

With `O=C1C=CC(=O)N1c1ccccc1N1C(=O)C=CC1=O`, the melting point was in the range of 245 to 248 °C.

The compound `CN(C)c1ccc(NC(N)=S)cc1` yielded a melting point of 190 °C.

As to `CC(=Nn1c(S)nnc1C(F)(F)F)c1ccc(C)cc1`, the melting point stood at 201 °C.

In turn, `OCc1ccc(Cn2cncn2)cc1` yielded a melting point of 68 to 70 °C.

For the compound `COC(=O)c1ccc(NC(C)C)c(N)c1`, the melting point is 104 to 106 °C.

As to `Clc1nccc(-c2ccccc2)n1`, the melting point fell in the range of 86 to 87 °C.

`O=C(c1ccc(Cl)cc1)c1noc(-c2cccc3ccccc23)c1S(=O)(=O)c1ccccc1`: the melting point was 150 °C.

The compound `CC(=O)/C(=N\Nc1cccc(C(F)(F)F)c1)C(=O)C(F)(F)F` yielded a melting point of 85 to 87 °C.

With `BrCc1nc2ccccc2s1`, the melting point amounted to 47 °C.

Compound `FC(F)(I)C(F)(F)C(F)(F)C(F)(F)I` came in with a melting point of -9 °C.

`CCC1C(C)=NN=C(c2ccc(OC)c(OC)c2)c2cc(OC)c(OC)cc21` (stereo not given) registered a melting point of 156 °C.

In the case of `O=COCC=Cc1ccccc1`, the melting point came out at 0 °C.

Take `COC(=O)c1scc(S(=O)(=O)Cc2ccco2)c1N`: the melting point lay within 152 to 154 °C.

Turning to `NC(CCCCCC(=O)O)C(=O)O` (racemic), the melting point fell in the range of 223 to 225 °C.

Consider `Cc1ccc(P(=S)(c2ccc(C)cc2)c2ccc(C)cc2)cc1`, for which the melting point was in the range of 185 to 186 °C.

With `Nc1cc(F)c(Br)cc1F`, the melting point is 75 °C.

Turning to `N#Cc1cccc(CS(=O)(=O)Cl)c1`, the melting point fell in the range of 100 to 102 °C.

The compound `CC1(C)OC(C)(C(O)C2CCCCC2)CCC1C(=O)O` (stereo not given) showed a melting point of 181 °C.

The compound `Cc1nc2sccn2c1C(=O)NN` returned a melting point of 150 °C.

Regarding `CCOC(=O)CN(C)C(=O)c1nn(-c2ccccc2)nc1C`, the melting point was 72 to 74 °C.

Take `Oc1ccccc1CCc1ccccc1`: the melting point was 85 °C.

Compound `CC(=O)C(C#N)(CC(=O)c1ccccc1)c1ccccc1` (stereo not given) had a melting point of 94 °C.

With `CC(C)(C)NC(=O)COC(=O)c1ccccc1`, the melting point amounted to 112 °C.

Regarding `ON=CNc1ccc(Cl)nn1`, the melting point lay in the range of 207 to 211 °C.

`c1ccc2c(-c3cccc4ccccc34)cccc2c1` yielded a melting point of 160 °C.

`CC(C)(C(=O)O)n1nc2ccccc2n1` yielded a melting point of 152 °C.

The compound `O=C(NC(=O)c1ccccc1)c1ccccc1` came in with a melting point of 152 °C.

Regarding `O=C=Nc1ccccc1Cl`, the melting point was determined as 30.5 °C.

On to `Cc1cc(C(F)(F)F)c(C#N)c(=O)[nH]1`, for which the melting point is 233 to 235 °C.

Consider `Cc1cnc(Cl)c([N+](=O)[O-])c1`, for which the melting point lay within 46 to 50 °C.

As to `CCc1cc(C(F)(F)F)c2c([nH]c3ccccc32)c1CO`, the melting point was 150 to 153 °C.

For the compound `O=[N+]([O-])c1cccc2cccc(/C=N\c3ccccc3)c12`, the melting point fell in the range of 114 to 115 °C.

The compound `CC(C)CC1c2ccccc2-c2ccccc21` showed a melting point of 45 °C.

Compound `O=[N+]([O-])c1cc([N+](=O)[O-])c(Nc2ccc3c(c2)OCCOCCOCCOCCO3)c(C(F)(F)F)c1` came in with a melting point of 171 °C.

On to `NC(CCCC(N)C(=O)O)C(=O)O` (stereo not given), for which the melting point stood at 300 °C.

`Cc1ccc(S(=O)(=O)OCC2Cc3ccccc3O2)cc1` (stereo not given) registered a melting point of 72 to 73 °C.

`CC1CCC(C)(C(=O)N(C(=O)C2(C)CCC(C)C2(C)C)c2ccccc2)C1(C)C` (stereo not given) returned a melting point of 212 °C.

In turn, `O=C(O)Cc1cccc(Cl)c1Cl` returned a melting point of 134 °C.

Regarding `CCCCCCCOC(=O)CCCCCCC`, the melting point is -10.6 °C.

In turn, `NC(=O)c1ccc(F)cc1C(F)(F)F` returned a melting point of 136 °C.

As for `O=C(Nc1cc(C(F)(F)F)cc(C(F)(F)F)c1)c1cncc(Cl)n1`, the melting point turned out to be 133 °C.

In turn, `CCOC(=O)c1sc(N)nc1C` registered a melting point of 177 to 178 °C.

`CC(C)(C)OC(=O)N1CCC(Oc2ccccc2N)CC1` showed a melting point of 71 to 78 °C.

`Ic1ccc(OC2CCOCC2)cc1`: the melting point lay within 88.5 to 89.5 °C.

`CCOC(=O)/C(C#N)=C(/SC)N(C)C` returned a melting point of 90 to 94 °C.

Compound `O=S(=O)(O)CCNC(CO)(CO)CO` had a melting point of 223 to 225 °C.

As for `COc1c(OC)c(OC(C)=O)c2cc(C#N)ccc2c1OC(C)=O`, the melting point worked out at 124 °C.

Compound `Clc1cccc(-c2cccc(Cl)c2)c1` registered a melting point of 29 °C.

With `Cn1nc(C(C)(C)C)cc1C(=O)O`, the melting point fell in the range of 151 to 154 °C.

For the compound `OCC(CO)(CBr)CBr`, the melting point came to 113 °C.

With `Cc1ccc(-c2onc(C(=O)c3ccc(Cl)cc3)c2S(=O)(=O)c2ccccc2)cc1`, the melting point was 149 °C.

With `CCOc1ccc(Cl)cc1`, the melting point came to 21 °C.

Take `CC(=O)Oc1ccc(C#N)cc1`: the melting point came to 57 °C.

`CC(=O)NCCNc1cc(=O)oc2ccccc12` registered a melting point of 262 °C.

`COc1cccc(O)c1C(C)=O` displayed a melting point of 58 to 60 °C.

For `Cc1nn(-c2ccccc2)nc1C(=O)NN`, the melting point lay in the range of 123 to 125 °C.

For the compound `Cc1nc(C)c(Br)s1`, the melting point was in the range of 153 to 155 °C.

`CC(=O)CCc1ccc(CCC(C)=O)c([N+](=O)[O-])c1` had a melting point of 58 °C.

Regarding `CCOC(=O)C(ON=C(c1cc2ccccc2o1)c1cc2ccccc2o1)C(=O)OCC`, the melting point lay within 137 to 138 °C.

The compound `CC(=O)NCCN` registered a melting point of 47 °C.

In the case of `COC(=O)C(C)N(C(=O)c1ccco1)c1c(C)cccc1C` (stereo not given), the melting point is 102 °C.

Take `N#Cc1cc(F)c(F)cc1Cl`: the melting point is 35 °C.

Compound `Nc1nc2ccccc2n1Cc1ccc(F)cc1` gave a melting point of 191 to 193 °C.

In the case of `O=C(O)c1ccc(C2CCCCC2)cc1`, the melting point worked out at 196 °C.

Turning to `CC(CCC(=O)O)C1CCC2C3C(O)CC4CC(O)CCC4(C)C3CCC12C` (stereo not given), the melting point is 203 °C.

In the case of `O=Cc1ccc(-c2ccsc2)cc1`, the melting point was in the range of 101 to 102 °C.

As to `O=Cc1ccc(-c2ccncc2)cc1`, the melting point was 101 to 104 °C.

`Oc1ccc(Cl)c2cccnc12`: the melting point stood at 130 °C.

The compound `Cc1ccccc1NC=O` had a melting point of 62 °C.

In turn, `N#C/C(=N/Nc1cccc(C(F)(F)F)c1)c1nc2ccccc2c(=O)[nH]1` showed a melting point of 238 °C.

Compound `CCCCC(CC)CO` (stereo not given) returned a melting point of -70 °C.

With `Cc1nc2cc(-c3ccccc3)ccc2o1`, the melting point was 63 °C.

`CC1=C(C(=O)OC(C)C)C(c2cccc([N+](=O)[O-])c2)NC(=S)N1` (stereo not given) showed a melting point of 225 °C.

The compound `COc1cc2ccc(=O)oc2cc1O` gave a melting point of 204 °C.

Compound `C=CCC1(CC(C)O)C(=O)NC(=O)NC1=O` (stereo not given) came in with a melting point of 158 °C.

The compound `NNC(=O)c1ccc(Cl)c(Cl)c1` came in with a melting point of 154 to 160 °C.

The compound `O=Cc1ccc(O)c(O)c1O` showed a melting point of 163 °C.

`COc1cc(C=C2C(=O)NN=C2c2c(O)c3ccccc3n(C)c2=O)cc(OC)c1OC` returned a melting point of 196 °C.

Take `O=P(O)(O)Cc1ccccc1`: the melting point came to 169 °C.

Turning to `O=C(O)C1C2CC3(OCCO3)C1CC2Cl` (stereo not given), the melting point lay within 164 to 166 °C.

As to `CCOC(=O)CCC(C)C1CCC2C3C(O)C(Br)C4CC(OC(C)=O)CCC4(C)C3CC(OC(C)=O)C12C` (stereo not given), the melting point lay within 164 to 167 °C.

As for `O=C(CNC(=O)OCC1c2ccccc2-c2ccccc21)Oc1c(F)c(F)c(F)c(F)c1F`, the melting point lay within 159 to 160 °C.

For the compound `CCCCCCCCCCc1ccc(C(C)=O)cc1`, the melting point is 33 to 35 °C.

On to `CC1=C(C=NO)C(=O)C(C(C)C)C=C1` (stereo not given), for which the melting point is 146 °C.

In turn, `N#Cc1cc2ccccc2oc1=N` registered a melting point of 200 °C.

In the case of `CC1(C)OC2C(=O)OC(CBr)C2O1` (stereo not given), the melting point fell in the range of 85 to 89 °C.

For the compound `CC12CCC(C(=O)C1)C2(C)C` (stereo not given), the melting point stood at 186 °C.

Turning to `Cc1c(N=C=O)cccc1N=C=O`, the melting point is 18.3 °C.

For the compound `Cc1ccc(NC(=O)CCC2C(=O)C3(C)CCC2C3(C)C)cc1` (stereo not given), the melting point turned out to be 114 °C.

As for `Oc1c(Cl)cc(F)cc1Cl`, the melting point lay in the range of 49 to 52 °C.

Regarding `CC(C)c1cccc(O)c1O`, the melting point was 47 °C.

Compound `C=CCOCC(CC)(CO)CO` came in with a melting point of -10 °C.

For `O=C1[C@H]2Cc3ccccc3C[C@H]2C(=O)[C@@H]2Cc3ccccc3C[C@H]12`, the melting point was in the range of 224 to 227 °C.

As to `CCOC(=O)c1cc2c(=O)oc3ccccc3c2[nH]c1=O`, the melting point lay in the range of 313 to 315 °C.

Compound `O=C(O)Cc1cccc(Oc2ccccc2)c1` had a melting point of 89 °C.

`N#Cc1ccc(C=Cc2ccccc2C=NNc2ccccc2)c([N+](=O)[O-])c1` came in with a melting point of 182 °C.

For orientation: melting point means the temperature of the solid-liquid transition.
